Test results reported in US20050197350A1, “Novel quinoline, tetrahydroquinazoline, and pyrimidine derivatives and methods of treatment related to the use thereof” (TAISHO PHARMACEUTICAL CO., LTD., priority 2003, published 2005).

These compounds were tested on MCH receptors (assay: MCH receptor activity class (method not given)). Conditions: class by percent of control at 10^-7 M or IC50.
For `CN(C)c1cc(N[C@H]2CC[C@@H](NC(=O)c3ccc(-c4cccc([N+](=O)[O-])c4)o3)CC2)nc2ccccc12` [compound 763, N-(cis-4-{[4-(dimethylamino)quinolin-2-yl]amino}cyclohexyl)-5-(3-nitrophenyl)-2-furamide], the class was 1 (Class 1: The value of percent of control at 10^−7 M was less than 40% or the value of IC50 was less than 50 nM.). With `CN(C)c1cc(N[C@H]2CC[C@@H](NC(=O)c3scc(S(C)(=O)=O)c3Cl)CC2)nc2ccccc12` [compound 764] the class was 3 (Class 3 The value of percent of control at 10^−7 M was more than 60% or the value of IC50 was more than 200 nM.). `CSc1sc(C(=O)N[C@H]2CC[C@@H](Nc3cc(N(C)C)c4ccccc4n3)CC2)c(Cl)c1S(=O)(=O)C(C)C` [compound 765] was tested, and the class was 3 (Class 3 The value of percent of control at 10^−7 M was more than 60% or the value of IC50 was more than 200 nM.). For `CSc1sc(C(=O)N[C@H]2CC[C@@H](Nc3cc(N(C)C)c4ccccc4n3)CC2)c(I)c1S(=O)(=O)C(C)C` [compound 766], the class was 3 (Class 3 The value of percent of control at 10^−7 M was more than 60% or the value of IC50 was more than 200 nM.). With `CN(C)c1cc(N[C@H]2CC[C@@H](NC(=O)c3csc([N+](=O)[O-])c3)CC2)nc2ccccc12` [compound 767, N-(cis-4-{[4-(dimethylamino)quinolin-2-yl]amino}cyclohexyl)-5-nitrothiophene-3-carboxamide] the class was 1 (Class 1: The value of percent of control at 10^−7 M was less than 40% or the value of IC50 was less than 50 nM.). For `CN(C)c1cc(N[C@H]2CC[C@@H](NC(=O)c3cc([N+](=O)[O-])cn3C)CC2)nc2ccccc12` [compound 768, N-(cis-4-{[4-(dimethylamino)quinolin-2-yl]amino}cyclohexyl)-1-methyl-4-nitro-1H-pyrrole-2-carboxamide], the class was 1 (Class 1: The value of percent of control at 10^−7 M was less than 40% or the value of IC50 was less than 50 nM.). With `CN(C)c1cc(N[C@H]2CC[C@@H](NC(=O)c3cn(S(=O)(=O)c4ccccc4)c4ccccc34)CC2)nc2ccccc12` [compound 769] the class was 3 (Class 3 The value of percent of control at 10^−7 M was more than 60% or the value of IC50 was more than 200 nM.). With `CN(C)c1cc(N[C@H]2CC[C@@H](NC(=O)c3ccc([N+](=O)[O-])cc3)CC2)nc2ccccc12` [compound 770, N-(cis-4-{[4-(dimethylamino)quinolin-2-yl]amino}cyclohexyl)-4-nitrobenzamide] the class was 1 (Class 1: The value of percent of control at 10^−7 M was less than 40% or the value of IC50 was less than 50 nM.). `COc1cc([N+](=O)[O-])ccc1C(=O)N[C@H]1CC[C@@H](Nc2cc(N(C)C)c3ccccc3n2)CC1` [compound 771, N-(cis-4-{[4-(dimethylamino)quinolin-2-yl]amino}cyclohexyl)-2-methoxy-4-nitrobenzamide] was tested, and the class was 2 (Class 2: The value of percent of control at 10^−7 M was from 40% to 60% or the value of IC′50 was from 50 nM to 200 nM.). For `CN(C)c1cc(N[C@H]2CC[C@@H](NC(=O)c3ccc(C(F)(F)F)c(F)c3)CC2)nc2ccccc12` [compound 772, N-(cis-4-{[4-(dimethylamino)quinolin-2-yl]amino}cyclohexyl)-3-fluoro-4-(trifluoromethyl)benzamide], the class was 1 (Class 1: The value of percent of control at 10^−7 M was less than 40% or the value of IC50 was less than 50 nM.). For `CN(C)c1cc(N[C@H]2CC[C@@H](NC(=O)c3ccc([N+](=O)[O-])cc3F)CC2)nc2ccccc12` [compound 773], the class was 3 (Class 3 The value of percent of control at 10^−7 M was more than 60% or the value of IC50 was more than 200 nM.). `Cc1cc(C(=O)N[C@H]2CC[C@@H](Nc3cc(N(C)C)c4ccccc4n3)CC2)cc(C)c1[N+](=O)[O-]` [compound 774, N-(cis-4-{[4-(dimethylamino)quinolin-2-yl]amino}cyclohexyl)-3,5-dimethyl-4-nitrobenzamide] was tested, and the class was 2 (Class 2: The value of percent of control at 10^−7 M was from 40% to 60% or the value of IC′50 was from 50 nM to 200 nM.). For `Cc1cc(C)c(C(=O)C(=O)N[C@H]2CC[C@@H](Nc3cc(N(C)C)c4ccccc4n3)CC2)c(C)c1` [compound 775, N-(cis-4-{[4-(dimethylamino)quinolin-2-yl]amino}cyclohexyl)-2-mesityl-2-oxoacetamide], the class was 2 (Class 2: The value of percent of control at 10^−7 M was from 40% to 60% or the value of IC′50 was from 50 nM to 200 nM.). `CN(C)c1cc(N[C@H]2CC[C@@H](NC(=O)c3cnc4ccccc4c3)CC2)nc2ccccc12` [compound 776] was tested, and the class was 3 (Class 3 The value of percent of control at 10^−7 M was more than 60% or the value of IC50 was more than 200 nM.). In the case of `CN(C)c1cc(N[C@H]2CC[C@@H](NC(=O)c3ccc4ncsc4c3)CC2)nc2ccccc12` [compound 779], the class is reported as 3 (Class 3 The value of percent of control at 10^−7 M was more than 60% or the value of IC50 was more than 200 nM.). In the case of `CN(C)c1cc(N[C@H]2CC[C@@H](NC(=O)c3cc(Cl)ccc3O)CC2)nc2ccccc12` [compound 780, 5-chloro-N-(cis-4-{[4-(dimethylamino)quinolin-2-yl]amino}cyclohexyl)-2-hydroxybenzamide], the class is reported as 2 (Class 2: The value of percent of control at 10^−7 M was from 40% to 60% or the value of IC′50 was from 50 nM to 200 nM.). In the case of `CSc1ccc(Cl)c(C(=O)N[C@H]2CC[C@@H](Nc3cc(N(C)C)c4ccccc4n3)CC2)c1` [compound 781], the class is reported as 3 (Class 3 The value of percent of control at 10^−7 M was more than 60% or the value of IC50 was more than 200 nM.). For `COc1cccc2cc(C(=O)N[C@H]3CC[C@@H](Nc4cc(N(C)C)c5ccccc5n4)CC3)oc12` [compound 782], the class was 3 (Class 3 The value of percent of control at 10^−7 M was more than 60% or the value of IC50 was more than 200 nM.). In the case of `Cc1cccc(C(=O)N[C@H]2CC[C@@H](Nc3cc(N(C)C)c4ccccc4n3)CC2)c1N` [compound 783], the class is reported as 3 (Class 3 The value of percent of control at 10^−7 M was more than 60% or the value of IC50 was more than 200 nM.). In the case of `COc1cc(C(=O)N[C@H]2CC[C@@H](Nc3cc(N(C)C)c4ccccc4n3)CC2)cc(OC)c1O` [compound 784], the class is reported as 3 (Class 3 The value of percent of control at 10^−7 M was more than 60% or the value of IC50 was more than 200 nM.). In the case of `CN(C)c1cc(N[C@H]2CC[C@@H](NC(=O)c3ccnc4ccccc34)CC2)nc2ccccc12` [compound 785], the class is reported as 3 (Class 3 The value of percent of control at 10^−7 M was more than 60% or the value of IC50 was more than 200 nM.). In the case of `C=CCSc1ncccc1C(=O)N[C@H]1CC[C@@H](Nc2cc(N(C)C)c3ccccc3n2)CC1` [compound 786], the class is reported as 3 (Class 3 The value of percent of control at 10^−7 M was more than 60% or the value of IC50 was more than 200 nM.). For `CN(C)c1cc(N[C@H]2CC[C@@H](NC(=O)c3cc(C(C)(C)C)c(O)c(C(C)(C)C)c3)CC2)nc2ccccc12` [compound 787], the class was 3 (Class 3 The value of percent of control at 10^−7 M was more than 60% or the value of IC50 was more than 200 nM.). `CN(C)c1cc(N[C@H]2CC[C@@H](CNC(=O)c3ccc(Br)s3)CC2)nc2ccccc12` [compound 788] was tested, and the class was 3 (Class 3 The value of percent of control at 10^−7 M was more than 60% or the value of IC50 was more than 200 nM.).
